Reference: ChEMBL document CHEMBL3885861, “Open TG-GATES”

Species: Rattus norvegicus
Assay: Open TG-GATES - Regimen: Single
Format: toxicity, organism-based, Sprague-Dawley
Parameters: regimen Single, gender Male, age 6 weeks
Settings: in vivo, ip, 0.01 mg/kg, route intraperitoneal injection, dose 10 ug/Kg, dose level High; for APTT / Bas / Eos / Fbg / Hb / Ht / Lym / MCH / MCHC / MCV / Mono / Neu / PT / Plat / RBC / Ret / WBC: tissue Blood; for KIDNEY_L / KIDNEY_R / KIDNEY_TOTAL: tissue Kidney; for LIVER: tissue Liver; for A/G / ALP / ALT / AST / BUN / CRE / Ca / Cl / DBIL / GLC / IP / K / LDH / Na / PL / RALB / TBIL / TC / TG / TP / gamma-GTP: tissue Plasma

Q: H-KGDRLS-OH [TNF-ALPHA] was tested. Which TERMINAL_BW (3 h) did it give?
A: 199.5 g

Q: And the APTT (3 h)?
A: 15.7 s

Q: And the Bas (3 h)?
A: 0.2%

Q: And the Eos (3 h)?
A: 0.4%

Q: What about the Fbg (3 h) of the same substance?
A: 279.2 mg/dL

Q: What about the Hb (3 h) of the same substance?
A: 13.2 g/dL

Q: What about the Ht (3 h) of the same substance?
A: 40.1%

Q: And the Lym (3 h)?
A: 75%

Q: What about the MCH (3 h) of the same substance?
A: 21.5 pg

Q: What about the MCHC (3 h) of the same substance?
A: 32.8%

Q: What about the MCV (3 h) of the same substance?
A: 65.3 fL

Q: And the Mono (3 h)?
A: 4.4%

Q: What about the Neu (3 h) of the same substance?
A: 18.8%

Q: And the PT (3 h)?
A: 15.4 s

Q: And the Plat (3 h)?
A: 115.5 x10_4/uL

Q: What about the RBC (3 h) of the same substance?
A: 615.2 x10_4/ul

Q: What about the Ret (3 h) of the same substance?
A: 9.2%

Q: And the WBC (3 h)?
A: 82.2 x10_2/uL

Q: What about the KIDNEY_L (3 h) of the same substance?
A: 0.9 g

Q: And the KIDNEY_R (3 h)?
A: 0.9 g

Q: And the KIDNEY_TOTAL (3 h)?
A: 1.7 g

Q: What about the LIVER (3 h) of the same substance?
A: 8.8 g

Q: What about the A/G (3 h) of the same substance?
A: 0.9

Q: What about the ALP (3 h) of the same substance?
A: 1307.2 IU/L

Q: And the ALT (3 h)?
A: 43.6 IU/L

Q: What about the AST (3 h) of the same substance?
A: 79.2 IU/L

Q: What about the BUN (3 h) of the same substance?
A: 10.4 mg/dL

Q: And the CRE (3 h)?
A: 0.2 mg/dL

Q: And the Ca (3 h)?
A: 10.7 mg/dL

Q: And the Cl (3 h)?
A: 105.8 meq/L

Q: And the DBIL (3 h)?
A: 0.01 mg/dL

Q: What about the GLC (3 h) of the same substance?
A: 167 mg/dL

Q: And the IP (3 h)?
A: 9.8 mg/dL

Q: What about the K (3 h) of the same substance?
A: 4 meq/L

Q: What about the LDH (3 h) of the same substance?
A: 71 IU/L

Q: What about the Na (3 h) of the same substance?
A: 142.4 meq/L

Q: What about the PL (3 h) of the same substance?
A: 141.2 mg/dL

Q: And the RALB (3 h)?
A: 2.4 g/dL

Q: What about the TBIL (3 h) of the same substance?
A: 0.062 mg/dL

Q: And the TC (3 h)?
A: 77.8 mg/dL

Q: And the TG (3 h)?
A: 50.4 mg/dL

Q: What about the TP (3 h) of the same substance?
A: 5.2 g/dL

Q: And the gamma-GTP (3 h)?
A: 1.2 IU/L

Q: What about the TERMINAL_BW (6 h) of the same substance?
A: 194.4 g

Q: What about the APTT (6 h) of the same substance?
A: 18.1 s

Q: What about the Bas (6 h) of the same substance?
A: 0%

Q: What about the Eos (6 h) of the same substance?
A: 0.2%

Q: And the Fbg (6 h)?
A: 349.4 mg/dL

Q: What about the Hb (6 h) of the same substance?
A: 13.2 g/dL

Q: And the Ht (6 h)?
A: 40.3%

Q: And the Lym (6 h)?
A: 62.4%

Q: And the MCH (6 h)?
A: 21 pg

Q: What about the MCHC (6 h) of the same substance?
A: 32.9%

Q: What about the MCV (6 h) of the same substance?
A: 63.8 fL

Q: And the Mono (6 h)?
A: 2.6%

Q: What about the Neu (6 h) of the same substance?
A: 34.2%

Q: And the PT (6 h)?
A: 15 s

Q: What about the Plat (6 h) of the same substance?
A: 106.9 x10_4/uL

Q: What about the RBC (6 h) of the same substance?
A: 632.2 x10_4/ul

Q: And the Ret (6 h)?
A: 7.9%

Q: And the WBC (6 h)?
A: 58.5 x10_2/uL

Q: And the KIDNEY_L (6 h)?
A: 0.9 g

Q: And the KIDNEY_R (6 h)?
A: 0.9 g

Q: What about the KIDNEY_TOTAL (6 h) of the same substance?
A: 1.8 g

Q: And the LIVER (6 h)?
A: 8.5 g

Q: And the A/G (6 h)?
A: 0.8

Q: What about the ALP (6 h) of the same substance?
A: 1422.6 IU/L

Q: And the ALT (6 h)?
A: 37.6 IU/L

Q: And the AST (6 h)?
A: 73 IU/L

Q: What about the BUN (6 h) of the same substance?
A: 8.6 mg/dL

Q: What about the CRE (6 h) of the same substance?
A: 0.2 mg/dL

Q: What about the Ca (6 h) of the same substance?
A: 10.8 mg/dL

Q: And the Cl (6 h)?
A: 105.4 meq/L

Q: And the DBIL (6 h)?
A: 0.008 mg/dL

Q: And the GLC (6 h)?
A: 170.8 mg/dL

Q: And the IP (6 h)?
A: 9.8 mg/dL

Q: What about the K (6 h) of the same substance?
A: 3.8 meq/L

Q: And the LDH (6 h)?
A: 67.2 IU/L

Q: What about the Na (6 h) of the same substance?
A: 143.2 meq/L

Q: And the PL (6 h)?
A: 162.2 mg/dL

Q: What about the RALB (6 h) of the same substance?
A: 2.5 g/dL

Q: And the TBIL (6 h)?
A: 0.06 mg/dL

Q: What about the TC (6 h) of the same substance?
A: 91.8 mg/dL

Q: And the TG (6 h)?
A: 40.2 mg/dL

Q: And the TP (6 h)?
A: 5.4 g/dL

Q: And the gamma-GTP (6 h)?
A: 1.4 IU/L

Q: What about the TERMINAL_BW (9 h) of the same substance?
A: 194.6 g

Q: What about the APTT (9 h) of the same substance?
A: 19.4 s

Q: And the Bas (9 h)?
A: 0%

Q: What about the Eos (9 h) of the same substance?
A: 0.6%

Q: What about the Fbg (9 h) of the same substance?
A: 371 mg/dL

Q: And the Hb (9 h)?
A: 13.4 g/dL

Q: And the Ht (9 h)?
A: 40.6%

Q: And the Lym (9 h)?
A: 69.8%

Q: What about the MCH (9 h) of the same substance?
A: 21.4 pg

Q: What about the MCHC (9 h) of the same substance?
A: 32.9%

Q: What about the MCV (9 h) of the same substance?
A: 64.8 fL

Q: And the Mono (9 h)?
A: 1.8%

Q: And the Neu (9 h)?
A: 26.8%

Q: And the PT (9 h)?
A: 15.3 s

Q: And the Plat (9 h)?
A: 105.5 x10_4/uL

Q: And the RBC (9 h)?
A: 627.6 x10_4/ul

Q: What about the Ret (9 h) of the same substance?
A: 8.3%

Q: What about the WBC (9 h) of the same substance?
A: 66.7 x10_2/uL

Q: What about the KIDNEY_L (9 h) of the same substance?
A: 0.9 g

Q: What about the KIDNEY_R (9 h) of the same substance?
A: 0.9 g

Q: What about the KIDNEY_TOTAL (9 h) of the same substance?
A: 1.7 g

Q: And the LIVER (9 h)?
A: 7.9 g

Q: And the A/G (9 h)?
A: 0.8

Q: And the ALP (9 h)?
A: 1174.4 IU/L

Q: What about the ALT (9 h) of the same substance?
A: 32.6 IU/L

Q: And the AST (9 h)?
A: 62.8 IU/L

Q: What about the BUN (9 h) of the same substance?
A: 7.2 mg/dL

Q: And the CRE (9 h)?
A: 0.2 mg/dL

Q: What about the Ca (9 h) of the same substance?
A: 10.8 mg/dL

Q: What about the Cl (9 h) of the same substance?
A: 104.4 meq/L

Q: And the DBIL (9 h)?
A: 0.004 mg/dL

Q: And the GLC (9 h)?
A: 167.2 mg/dL

Q: What about the IP (9 h) of the same substance?
A: 10.2 mg/dL

Q: What about the K (9 h) of the same substance?
A: 3.9 meq/L

Q: What about the LDH (9 h) of the same substance?
A: 55.2 IU/L

Q: What about the Na (9 h) of the same substance?
A: 141.6 meq/L

Q: What about the PL (9 h) of the same substance?
A: 159.2 mg/dL

Q: What about the RALB (9 h) of the same substance?
A: 2.5 g/dL

Q: What about the TBIL (9 h) of the same substance?
A: 0.064 mg/dL

Q: And the TC (9 h)?
A: 96.6 mg/dL

Q: What about the TG (9 h) of the same substance?
A: 22.2 mg/dL

Q: What about the TP (9 h) of the same substance?
A: 5.5 g/dL

Q: And the gamma-GTP (9 h)?
A: 1.4 IU/L

Q: And the TERMINAL_BW (24 h)?
A: 211.6 g

Q: And the APTT (24 h)?
A: 15.6 s

Q: What about the Bas (24 h) of the same substance?
A: 0.2%

Q: What about the Eos (24 h) of the same substance?
A: 0.8%

Q: What about the Fbg (24 h) of the same substance?
A: 323.4 mg/dL

Q: What about the Hb (24 h) of the same substance?
A: 13.1 g/dL

Q: And the Ht (24 h)?
A: 40.2%

Q: What about the Lym (24 h) of the same substance?
A: 80.4%

Q: What about the MCH (24 h) of the same substance?
A: 21.5 pg

Q: And the MCHC (24 h)?
A: 32.6%

Q: And the MCV (24 h)?
A: 65.8 fL

Q: What about the Mono (24 h) of the same substance?
A: 3%

Q: What about the Neu (24 h) of the same substance?
A: 15%

Q: And the PT (24 h)?
A: 15.5 s

Q: What about the Plat (24 h) of the same substance?
A: 116.4 x10_4/uL

Q: What about the RBC (24 h) of the same substance?
A: 610.2 x10_4/ul

Q: And the Ret (24 h)?
A: 8.5%

Q: And the WBC (24 h)?
A: 77.3 x10_2/uL

Q: What about the KIDNEY_L (24 h) of the same substance?
A: 1 g

Q: And the KIDNEY_R (24 h)?
A: 0.9 g

Q: And the KIDNEY_TOTAL (24 h)?
A: 1.9 g

Q: What about the LIVER (24 h) of the same substance?
A: 9.8 g

Q: What about the A/G (24 h) of the same substance?
A: 0.8

Q: And the ALP (24 h)?
A: 1565.6 IU/L

Q: What about the ALT (24 h) of the same substance?
A: 47.8 IU/L

Q: And the AST (24 h)?
A: 69.6 IU/L

Q: And the BUN (24 h)?
A: 15.4 mg/dL

Q: What about the CRE (24 h) of the same substance?
A: 0.2 mg/dL

Q: And the Ca (24 h)?
A: 11.1 mg/dL

Q: What about the Cl (24 h) of the same substance?
A: 106.6 meq/L

Q: And the DBIL (24 h)?
A: 0.012 mg/dL

Q: And the GLC (24 h)?
A: 190 mg/dL

Q: And the IP (24 h)?
A: 8.9 mg/dL

Q: And the K (24 h)?
A: 4.4 meq/L

Q: And the LDH (24 h)?
A: 93.6 IU/L

Q: And the Na (24 h)?
A: 142.2 meq/L

Q: What about the PL (24 h) of the same substance?
A: 156 mg/dL

Q: And the RALB (24 h)?
A: 2.6 g/dL

Q: What about the TBIL (24 h) of the same substance?
A: 0.042 mg/dL

Q: What about the TC (24 h) of the same substance?
A: 83.6 mg/dL

Q: What about the TG (24 h) of the same substance?
A: 76.2 mg/dL

Q: What about the TP (24 h) of the same substance?
A: 5.7 g/dL

Q: And the gamma-GTP (24 h)?
A: 1 IU/L
